Key:
[1] = test system: rats; details: rats treated with propranolol; cited from earlier work
[2] = test system: primary osteoblasts; experiment: Gene expression and apoptosis in primary osteoblasts; type: cell-based, mouse; details: primary osteoblasts, isoproterenol plus propranolol
Method: (§1) Primary osteoblast cultures were established as previously described (see, e.g., Ducy et al., 2000, Cell 100: 197-207) and maintained in αMEM/0.1 mg/ml ascorbic acid supplemented with 10% FBS. SaOS-2 were grown in MEM/10% FBS. For cAMP assay confluent cultures were incubated with serum free medium containing 100 μM IBMX (3-isobutyl-1-methylxanthine, Sigma) for 8 minutes before PBS, PTH(1-34) (Bachem), isoproterenol, norepinephrine, phenylephrine (Sigma) or propranolol were added for 5 min. Intracellular cAMP concentration was measured by immunoassay (R&D Systems). For gene expression analyses, primary osteoblasts were treated for 72 hours with appropriate drugs in 0.1% FBS. Hormone serum levels were quantified using immunoassays kits from Peninsula Laboratories (Insulin) or Alpco Diagnostics (leptin). Deoxypyridinoline cross-links and Creatinine were measured in morning urines using the Quidel kits. a1(I) leptin bioactivity was verified by cotransfection of 293 cells expressing ObRb with a STAT3-responsive-luc reporter construct, pSVβgal plasmid and a1(I) leptin expression vector or mock. Twenty-four hours later luciferase and β-galactosidase activities were measured. Data represents ratios of luciferase/β-galactosidase activities, and values are mean of 6 independent transfection experiments.
To elucidate the bases of the antiosteogenic effect of isoproterenol in vivo, osteoblast proliferation, gene expression and apoptosis were studied.

[3] = test system: human SaOS-2 osteoblastic cells; experiment: cAMP production in human SaOS-2 osteoblastic cells; type: cell-based; details: SaOS-2, added to β-adrenergic receptor agonists
Method: as §1
For a sympathetic regulation of bone formation to exist several requirements have to be fulfilled. The first one is that functional adrenergic receptors are present on osteoblasts. […] No other adrenergic receptor subtype could be detected. […] Thus, to assess the biologic relevance of the presence of β2-adrenergic receptors on osteoblasts, these cells were treated with isoproterenol, a β-adrenergic agonist, alone or in the presence of propranolol, a β-adrenergic receptor antagonist; with norepinephrine, the natural ligand of β-adrenergic receptors; with phenylephrine, an α-adrenergic agonist or with vehicle and measured cAMP production. […]

[4] = test system: ovariectomized wt mice; experiment: Propranolol treatment of ovariectomized wt mice; type: in vivo, mouse
Method: (§2) Wildtype (C57BL/6J) and mutant (C57BL/6J A^y/a, C57BL/6J ob/ob) mice were obtained from the Jackson laboratory and adrenal medullectomized mice from Harlan Tecklad laboratory. Dbh−/− mice were rescued as previously described (Thomas et al., 1998, Neurochem 70:2468-2476). Isoproterenol (Sigma) was injected intraperitoneally (ip) once daily for 6 weeks at 30 mg/kg (wt) or 3 mg/kg (ob/ob). Propranolol (Sigma) was added to the drinking water at a concentration of 0.5 g/l. For ICV infusion, a 28-gauge cannula (Brain infusion kit II, Alza) was implanted into the third ventricle as previously described infusing human leptin (Sigma) at 8 ng/hr or MT-II at 125 ng/hr (Phoenix Pharmaceuticals) for 28 days (see, e.g., Ducy et al., 2000, Cell 100: 197-207). The cannula was connected to an osmotic pump (Alza) placed in the dorsal subcutaneous space of the animal. For parabiosis longitudinal incisions were made in the skin and in the peritoneal cavity along one side on each mouse. Edges of the incisions were connected by suture to induce coelioanastomosis. Cross-circulation was quantified by injecting 1 ml/kg 0.25% Evans blue into the tail vein of one mouse of the parabiosed pair. After 30 min. blood was collected from both mice by retroorbital bleeding and the blood exchange rate was calculated according to standard techniques (see, e.g., Harris & Martin, 1984, Am J Physiol 247:R380-386). […] Two weeks after parabiosis a pump delivering leptin ICV in one animal of each pair was implanted. For GTG lesioning, 4-week-old C57BL/6J mice were given a single ip injection of either PBS or GTG (0.5 mg/g). For MSG lesioning, 2 day-old C57BL/6J pups were injected daily subcutaneously with either PBS or MSG (2 mg/g) for 10 days.
To test if it was the case ovariectomy in 6 week-old wt mice was performed and the mice were treated for 7 weeks with propranolol or vehicle. Estrogen depletion by ovariectomy decreased bone mass in vehicle-treated mice. […] This latter result underscores the physiologic and therapeutic importance of the sympathetic regulation of bone formation.

[5] = test system: wt mice; experiment: Propranolol treatment of wt mice; type: in vivo, mouse
Method: as §2
Histological analyses were performed on undecalcified sections stained by von Kossa and counterstained by von Gieson (see, e.g., Ducy et al., 2000, Cell 100:197-207). Static and dynamic histomorphometric analyses were performed according to standard protocols (see, e.g., Parfitt et al., 1987, J Bone Miner Res 6:595-610) using the Osteomeasure Analysis System (Osteometrics, Atlanta). Six to 12 animals were analyzed for each group. Statistical significance was assessed by Student's t test.
as §1
The most important biomedical requirement for regulation of bone formation by the SNS is that β-adrenergic antagonists (β blockers) should increase bone mass by increasing bone formation. To address this point, wt mice were treated for 5 weeks with propranolol (0.4 mg/day). […] In some propranolol-treated mice the bone volume matched what is observed in ob/ob mice. […]

[6] = test system: murine primary osteoblasts; experiment: cAMP production in murine primary osteoblasts; type: cell-based, mouse; details: added with isoproterenol or norepinephrine
Method: as §1
For a sympathetic regulation of bone formation to exist several requirements have to be fulfilled. The first one is that functional adrenergic receptors are present on osteoblasts. […] Immunohistochemical analysis of long bones from transgenic mice expressing LacZ under the control of the osteoblast-specific fragment of the a1(I) collagen promoter verified the presence of β2-adrenergic receptors on osteoblasts (FIG. 13B). No other adrenergic receptor subtype could be detected. […] Electron micrographs confirmed the presence of unmyelinated peripheral nerve axons coursing through the marrow adjacent to bone trabeculae and to osteoblasts (FIG. 13E). β-adrenergic receptors are G-coupled receptors that signal through the cAMP pathway (see, e.g., Benovic et al., 1988, Annu Rev Cell Biol 4:405-428). Thus, to assess the biologic relevance of the presence of β2-adrenergic receptors on osteoblasts, these cells were treated with isoproterenol, a β-adrenergic agonist, alone or in the presence of propranolol, a β-adrenergic receptor antagonist; with norepinephrine, the natural ligand of β-adrenergic receptors; with phenylephrine, an α-adrenergic agonist or with vehicle and measured cAMP production. As a positive control, parathyroid hormone (PTH) that binds to another G-coupled receptor present in osteoblasts was used (Gardella & Juppner, 2001, Trends Endocrinol Metab 12:210-217.). […] These effects were abolished by propranolol treatment. […]

hyperinsulinism or other hormonal modifications ([5]; wt mice): did not cause
Compound: CC(C)NCC(O)COc1cccc2ccccc12 (stereo not shown) [propranolol]
femoral metaphyseal mineral apposition rates [1]: Increased | inhibitory effect of isoproterenol on gene expression [2]: reversed | effect on agonist-induced cAMP production [3]: inhibited | bone formation rate vs control ovariectomized mice ([4]; ovariectomized mice, 7 weeks): striking increase | osteoblast number vs control ovariectomized mice ([4]; ovariectomized mice, 7 weeks): striking increase | bone mass ([4]; ovariectomy at 6 weeks of age, treated for 7 weeks): normal | Bone Volume ([5]; Wild-type + propranolol): High | body weight and fat pad weight ([5]; wt mice, 5 weeks, 0.4 mg/day): remained normal | bone formation rate ([5]; wt mice, 5 weeks, 0.4 mg/day): increase | number of osteoblasts ([5]; wt mice, 5 weeks, 0.4 mg/day): increase | bone mass in vertebrae and long bones ([5]; wt mice, 5 weeks, 0.4 mg/day (drinking water 0.5 g/l)): significant increase | effect on agonist-induced cAMP production [6]: abolished

Source: patent US20060165683A1, “Methods and compositions for control of bone formation via modulation of sympathetic tone” (priority 2001, published 2006)
